From patent US20130158075A1, “HETEROCYCLIC COMPOUNDS AS DGAT1 INHIBITORS” (PIRAMAL ENTERPRISES LIMITED, priority 2010, published 2013)
Counter-ions that a name gives are not always drawn.

Each compound was assayed against T1, hDGAT1 (Homo sapiens, UniProt O75907) (assay: In-vitro DGAT1 assay with hDGAT1 microsomes from Sf9 cells (14C oleoyl CoA, scintillation counting)). Details: at 1 μM.
T1 construct: made in house; host or cells: Sf9 insect cells (baculovirus); microsomal fraction
T1 sequence (O75907 1-488): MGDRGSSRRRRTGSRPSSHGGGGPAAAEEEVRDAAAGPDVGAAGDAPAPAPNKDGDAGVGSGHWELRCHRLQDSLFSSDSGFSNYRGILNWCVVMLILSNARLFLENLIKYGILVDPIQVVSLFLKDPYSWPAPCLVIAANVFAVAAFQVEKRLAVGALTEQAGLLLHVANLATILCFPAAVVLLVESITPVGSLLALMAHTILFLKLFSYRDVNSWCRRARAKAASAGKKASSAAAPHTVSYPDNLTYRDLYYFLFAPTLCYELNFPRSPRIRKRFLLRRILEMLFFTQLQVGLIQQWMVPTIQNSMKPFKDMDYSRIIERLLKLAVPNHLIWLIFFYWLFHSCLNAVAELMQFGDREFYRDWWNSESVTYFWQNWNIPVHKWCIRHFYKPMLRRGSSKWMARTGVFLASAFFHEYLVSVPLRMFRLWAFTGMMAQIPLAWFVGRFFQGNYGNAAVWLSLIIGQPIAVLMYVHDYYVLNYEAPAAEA
Format: biochemical
Experimental: Sf9 cells were grown in T25 flasks containing Graces's Insect media with 10% FBS with antibiotic (100 units/mL penicillin, 100 μg/mL streptomycin sulphate, 0.25 μg/mL Amptotericin B as Fungizone) grown in a 27° C. incubator.
hDGAT10RF expression clone (RZPDo839C09146 in pDEST vector) was obtained from RZPD, German Science Center for Genomes research, Germany. hDGAT1 bacmid DNA was obtained by transformation of the hDGAT1 expression clone into DH10Bac E. coli competent cells. Approximately 1 μg of hDGAT1 bacmid DNA was infected into Sf9 cells with Cellfectin (Invitrogen) reagent. Following infection, Sf9 cells were incubated at 27° C. for 30 min. Five hours after infection, the media was replaced with growth media containing antibiotics (100 units/mL penicillin, 100 μg/mL streptomycin sulphate, 0.25 μg/mL Amptotericin B as Fungizone) and incubated at 27° C. for 72 h. The supernatant containing the virus was centrifuged at 1500×g for 5 min, passed through 0.22 μm filter, and subsequently stored at 4° C. The virus was further amplified three more times by re-infection of Sf9 cells and the viral titer was determined by plaque assay.
Sf9 cells were seeded in spinner flasks on day 0 at a cell density of 1×10^6 and infected on day 1 with hDGAT1 baculovirus at a multiplicity of infection (MOI) of 5 and a cell density of 2×10^6. On day 3 (or 66-72 h), cells were harvested and centrifuged at 2500×g for 10 min. Pellet was resuspended in lysis buffer (100 mM sucrose, 50 mM KCl, 40 mM KH2PO4, 30 mM EDTA, pH 7.2) and passed through 21-gauge needle approximately 10 times. The mixture was centrifuged at 12,000 rpm in a Sigma 12158-H rotor at 4° C. for 30 min. The supernatant was subjected to centrifugation at 35,000 rpm in a Beckman Ti-45 rotor at 4° C. for 1 h. The resultant pellet containing the microsomes wasere resuspended overnight in 1 mL of lysis buffer and total protein concentration was estimated using Bradford Reagent. Microsomes were aliquoted and stored at −80° C.
Frozen aliquots of hDGAT1 containing microsomes were thawed (5-10 mg/mL total protein) on ice and diluted to a working stock of 1 mg/mL with DGAT Assay Buffer (DAB). The DGAT reaction assay was performed by following the procedure described in U.S. Pat. No. 6,607,893 with some modifications that are described below.
1 mL stock solution of DGAT1 substrate mixture contains 5.6 μL of ^14C oleoyl CoA (16.8 nCi) and […] of 1,2-dioleoyl-sn-glycerol (1228.5 μM) 1,2-dioleoyl-sn-glycerol stock (19.5 mM) was prepared by dissolving 25 mg of 1,2-dioleoyl-sn-glycerol (Sigma, US) in 2060 μL of acetone.
The assay was performed in duplicates in a reaction volume of 100 μL.
The reaction was started by the addition of 2.5 μL of 1 mg/mL of microsomes (iv) to the mixture of (i), (ii) and (iii), and incubated at 37° C. for 10 min. The reaction was stopped by the addition of 300 μL of Alkaline Ethanol Stop Solution Mix [AESSM; 12.5% of 100% non-denatured ethanol, 10% deionized water, 2.5% 1N NaOH, 75% stop solution (78.4% isopropanol, 19.6% n-heptane, 2% deionized water)] followed by addition of 600 μL of n-heptane. The mixture was vortexed and the triglycerides formed were extracted into the organic heptane phase. 250 μL of the heptane phase was added into 4 mL scintillation cocktail (66.72% toluene, 33.3% TritonX-100, 0.5% PPO, 0.02% POPOP) and counted on a liquid scintillation counter for 1 min. Data was collected and plotted as a function of concentration in nM versus percentage inhibition of hDGAT1 by the compounds of present invention.

| Percentage inhibition of hDGAT1 | Compound |
| --- | --- |
| ++ (>50 % Inhibition) | COC(=O)C(C)(C)CCc1ncc(-c2ccc(NC(=O)Nc3ccc(F)cc3)cc2)s1 [Example 96, Methyl 4-(5-(4-(3-(4-fluorophenyl)ureido)phenyl)thiazol-2-yl-2,2-dimethyl butanoate] |
| + (20-50% Inhibition) | CC(C)(C)c1ccc(C(=O)Nc2ccc(-c3noc([C@H]4CC[C@H](C(=O)O)CC4)n3)cc2)cc1 [Example 229, (1r,4r)-4-(3-(4-(4-tert-Butylbenzamido)phenyl)-1,2,4-oxadiazol-5-yl)cyclo hexane carboxylic acid] |
| + (20-50% Inhibition) | 3-(5-(4-(4-Tert-butyl benzamido)phenyl)oxazol-2-yl)-2,2-dimethylpropanoic acid [Example 126] |

Same assay, conditions: read-out: Percentage inhibition of hDGAT1

| Compound | inhibition at 1 µM [%] |
| --- | --- |
| O=C(Nc1ccccc1)Nc1ccc(-c2cnc(C3CCC(C(=O)O)CC3)o2)cc1 (centres unmarked) [Example 206, 4-(5-(4-(3-Phenylureido)phenyl)oxazol-2-yl)cyclohexanecarboxylic acid] | 20 to 50 |
| CN1CCN(C(=O)Nc2ccc(-c3cnc(CCC(C)(C)C(=O)O)s3)cc2)CC1 [Example 243, 2,2-Dimethyl-4-(5-(4-(4-methylpiperazine-1-carboxamido)phenyl)thiazol-2-yl)butanoic acid hydrochloride] | 20 to 50 |
| CC(C)(CCc1ncc(-c2ccc(NC(=O)Nc3cccc(C(F)(F)F)c3)cc2)s1)C(=O)O [Example 88, 2,2-Dimethyl-4-(5-(4-(3-(3-(trifluoromethyl)phenyl)ureido)phenyl)thiazol-2-yl)butanoic acid] | > 50 |
| O=C(O)CN1CCC(c2ncc(-c3ccc(NC(=O)Nc4cc(F)c(F)cc4F)cc3)s2)CC1 [Example 435, 2-(4-(5-(4-(3-(2,4,5-Trifluorophenyl)ureido)phenyl)thiazol-2-yl)piperidin-1-yl)acetic acid] | > 50 |
| CCCCCc1ccc(C(=O)Nc2ccc(-c3cnc(CC(C)(C)CC(=O)O)s3)cc2)cc1 [Example 79, 3,3-Dimethyl-4-(5-(4-(4-pentylbenzamido)phenyl)thiazol-2-yl)butanoic acid] | > 50 |
| O=C(O)CCCc1ncc(-c2ccc(NC(=O)Nc3ccc(Cl)cc3Oc3ccccc3)cc2)s1 [Example 55, 4-(5-(4-(3-(4-Chloro-2-phenoxyphenyl)ureido)phenyl)thiazol-2-yl)butanoic acid] | > 50 |
| CC(C)(CCc1ncc(-c2ccc(NC(=O)c3ccc(C(C)(C)C)cc3)cc2)s1)C(=O)O [Example 106, 4-(5-(4-(4-tert-Butylbenzamido)phenyl)thiazol-2-yl)-2,2-dimethylbutanoic acid] | > 50 |
| O=C(O)CN1CCC(c2ncc(-c3ccc(NC(=O)Nc4ccc(F)cc4F)cc3)s2)CC1 [Example 433, 2-(4-(5-(4-(3-(2,4-Difluorophenyl)ureido)phenyl)thiazol-2-yl)piperidin-1-yl)acetic acid] | > 50 |
| O=C(Nc1ccc(-c2cnc(C3CCC(C(=O)O)CC3)s2)cc1)Nc1ccc(F)cc1F (centres unmarked) [Example 138, 4-(5-(4-(3-(2,4-Difluorophenyl)ureido)phenyl)thiazol-2-yl)cyclohexane carboxylic acid] | > 50 |
| CC(C)(C)c1ccc(C(=O)Nc2ccc(-c3nnc(CCCC(=O)O)s3)cc2)cc1 [Example 288, 4-(5-(4-(4-(tert-Butyl)benzamido)phenyl)-1,3,4-thiadiazol-2-yl)butanoic acid] | 20 to 50 |
| O=C(O)CCc1ncc(-c2ccc(NC(=O)c3ccc4ccccc4c3)cc2)s1 [Example 21, 3-(5-(4-(2-Naphthamido)phenyl)thiazol-2-yl)propanoic acid] | > 50 |
| CS(=O)(=O)N1CCC(c2ncc(-c3ccc(NC(=O)Nc4ccccc4F)cc3)s2)CC1 [Example 491, 1-(2-Fluorophenyl)-3-(4-(2-(1-(methylsulfonyl)piperidin-4-yl)thiazol-5-yl)phenyl)urea] | 20 to 50 |
| O=C(Nc1ccc(-c2cnc(CCNS(=O)(=O)C(F)(F)F)s2)cc1)c1ccccc1Cl [Example 529, 2-Chloro-N-(4-(2-(2-(trifluoromethylsulfonamido)ethyl)thiazol-5-yl)phenyl)benzamide] | 20 to 50 |
| CC(C)(CCc1ncc(-c2ccc(NC(=O)N3CCC(c4ccccc4)CC3)cc2)s1)C(=O)O [Example 263, 2,2-Dimethyl-4-(5-(4-(4-phenylpiperidine-1-carboxamido)phenyl)thiazol-2-yl)butanoic acid] | > 50 |

Further lines, results first:

| inhibition at 1 µM [%] | Compound |
| --- | --- |
| > 50 | NNC(=O)CC1CCC(c2ncc(-c3ccc(NC(=O)Nc4cc(F)cc(F)c4)cc3)s2)CC1 (centres unmarked) [Example 410, 1-(3,5-Difluorophenyl)-3-(4-(2-(4-(2-hydrazinyl-2-oxoethyl)cyclohexyl)thiazol-5-yl)phenyl)urea] |
| 20 to 50 | CC(C)(Cc1ncc(-c2ccc(NC(=O)c3ccc(C(C)(C)C)cc3)cc2)s1)C(=O)O [Example 42, 3-(5-(4-(4-tert-Butylbenzamido)phenyl)thiazol-2-yl)-2,2-dimethylpropanoic acid] |
| 20 to 50 | COc1ccccc1NC(=O)Nc1ccc(-c2cnc(C3CCC(C(=O)O)CC3)o2)cc1 (centres unmarked) [Example 210, 4-(5-(4-(3-(2-Methoxyphenyl)ureido)phenyl)oxazol-2-yl)cyclohexane carboxylic acid] |
| > 50 | CC(C)(C)c1ccc(C(=O)Nc2ccc(-c3cnc(CCC(=O)O)s3)cc2)cc1 [Example 15, 3-(5-(4-(4-Tert-butylbenzamido)phenyl)thiazol-2-yl)propanoic acid] |
| > 50 | CC(=O)NC(=O)CC1CCC(c2ncc(-c3ccc(NC(=O)Nc4ccc(F)cc4F)cc3)s2)CC1 (centres unmarked) [Example 401, N-Acetyl-2-(4-(5-(4-(3-(2,4-difluorophenyl)ureido)phenyl)thiazol-2-yl)cyclohexyl)acetamide] |
| > 50 | O=C(Nc1ccc(-c2cnc(CNS(=O)(=O)C(F)(F)F)s2)cc1)Nc1ccc(C(F)(F)F)cc1 [Example 549, 1,1,1-Trifluoro-N-((5-(4-(3-(4-(trifluoromethyl)phenyl)ureido)phenyl)thiazol-2-yl)methyl)methanesulfonamide] |
| > 50 | CS(=O)(=O)N1CCC(c2ncc(-c3ccc(NC(=O)Nc4cc(F)c(F)cc4F)cc3)s2)CC1 [Example 494, 1-(4-(2-(1-(Methylsulfonyl)piperidin-4-yl)thiazol-5-yl)phenyl)-3-(2,4,5-trifluorophenyl)urea] |
| > 50 | COc1ccc(NC(=O)Nc2ccc(-c3cnc(CCC(C)(C)C(=O)O)s3)cc2)cc1 [Example 98, 4-(5-(4-(3-(4-Methoxyphenyl)ureido)phenyl)thiazol-2-yl)-2,2-dimethyl butanoic acid] |
| > 50 | O=C(O)CCCc1nnc(-c2ccc(NC(=O)Nc3ccccc3Cl)cc2)s1 [Example 280, 4-(5-(4-(3-(2-Chlorophenyl)ureido)phenyl)-1,3,4-thiadiazol-2-yl)butanoic acid] |
